“Also recorded” adds a separate entry of the source.

Data set [1] deals with ovariectomized rats, ischemia induced by middle cerebral artery occlusion (MCAO). In words: Ischemic area in brain slices after MCAO, estrogen pretreatment. It is filed as in vivo, rat. The conditions noted are these: for reduction of ischemic area vs sham: Silastic tube 24 h prior to MCAO, sacrifice 24 h after MCAO.
Data set [2] shares this test system. In words: Ischemic area in brain slices after MCAO, estrogen post-treatment at 40 or 90 minutes. It is filed as in vivo, rat. The conditions noted are these: administered 90 minutes after MCAO.
Data set [3] shares this test system. In words: Ischemic lesion volume (TTC) after MCAO, post-treatment at 0.5-4 hours. It is filed as in vivo, rat. The conditions noted are these: iv 100 μg/kg HPCD-complexed plus Silastic pellet at 0.5, 1, 2, or 3 hours post-occlusion; 48 hours after MCAO.
The subject of data set [4] is primary rat brain capillary endothelial cells (BCEC). Kind of data set: BCEC mortality under hypoglycemia (Trypan blue). Format: cell-based. As to conditions: 2 nM; normal glucose 200 mg %.
Procedure: Hypoglycemia experiments were undertaken. […] The glucose concentration of the culture media was then adjusted from 20 mg % to 200 mg % by adding appropriate amount of D-(+)-glucose to the glucose-free media and monitored by Glucose and L-Lactate Analyzer (YSI model 2300 STAT plus, YSI, Inc., Yellow Springs, Ohio). The hypoglycemic cultures were maintained for 24 hours or 48 hours prior to staining with Trypan blue. Cell mortality was counted using Trypan blue staining method. Cell death percentage was calculated as dead cell/alive cell×100%. Statistical methods used included two-way analysis of variance, applied to determine the significance of the difference among the experimental groups. Kruskal-Wallis nonparametric analysis was used for data presented as percentage. […] P<0.05 was considered significant.
Data set [5] in a line: Blood levels after single subcutaneous bolus injection in corn oil (radioimmunoassay). Format: in vivo, male Sprague-Dawley rats. The conditions noted are these: 100 μg/kg sc in corn oil. The protocol:
The drug was dissolved in corn oil at 100 μg/ml and the final dosage delivered was 100 μg/kg. […] Venous blood was collected into heparinized tubes, centrifuged and the plasma was collected and frozen. Levels of 17β-estradiol were determined using a commercially supplied radioimmunoassay kit.

The test system of data set [6] is primary rat brain capillary endothelial cells (BCEC). In words: BCEC mortality under combined anoxia and hypoglycemia (Trypan blue). As to conditions: 2 nM; 100 mg % hypoglycemia and anoxia 2 hours.
Procedure: Cell media contained 200 mg % or 100 mg % glucose. Culture dishes containing BCEC were placed in either an incubator or a nitrogen filled chamber for two hours. Trypan blue staining was used to distinguish live cells from dead cells. Two cell countings at two different hemacytometer squares were averaged. Mean±SEM are depicted (n=8.12). *<0.05 vs. corresponding vehicle control.
Nitrogen gas was influxed to replace the oxygen inside the chamber. The chamber was sealed and placed in the incubator for four hours for nonhypoglycemic cultures and 2 hours for hypoglycemic cultures.
Cell mortality was counted using Trypan blue staining method. Cell death percentage was calculated as dead cell/alive cell×100%.
Statistical methods used included two-way analysis of variance, applied to determine the significance of the difference among the experimental groups. Kruskal-Wallis nonparametric analysis was used for data presented as percentage. […] P<0.05 was considered significant.

On to `C[C@]12CC[C@@H]3c4ccc(O)cc4CC[C@H]3[C@@H]1CC[C@@H]2O` [17β-estradiol], for which the “ischemic area, percent of cross-sectional area of brain sections evaluated” value in data set [1] (pretreatment 24 h prior to MCAO, 3 brain slices, sham 25.6±5.7%) came out at 9.8±4.0%. Also, the “protective effect on ischemic area (in words)” value in data set [1] (tissue slices A-D, subcutaneous injection two hours prior to ischemic event) is reported as “significant protective effect”. In addition, the “reduction of ischemic area” value in data set [2] is on record as 31%. In data set [3], the “protection, ischemic lesion volume (in words)” value is on record as “significant protection”. Further, in data set [4], the “difference in % cell death with and without estrogen (in words)” value was “little difference”. Also, the results for the blood level in data set [5] (30 minutes after administration (peak)) and in data set [5] (4 hours) were 4,610 pg/ml and 2,004 pg/ml, respectively. In addition, the “blood level (in words)” value in data set [5] (by 25 hours) is on record as “near zero”. In addition, in data set [6], the “protection of BCEC (in words)” value is recorded as “effective in protecting cultured BCEC”.
Consider `C[C@]12CC[C@@H]3c4ccc(O)cc4CC[C@H]3[C@@H]1CC[C@H]2O` [17α-estradiol], for which the “reduction of ischemic area vs sham” value is 55% in data set [1] (slice C), 66% in data set [1] (slice D) and 81% in data set [1] (slice E). The “protective effect on ischemic area (in words)” value in data set [1] (tissue slices A-E, sustained subcutaneous delivery initiated 24 hours prior) is reported as “significant protective effect; also recorded: smaller ischemic areas compared with the sham treated animals in all slices evaluated”.
